pEC50: −log10 of the molar value.
Biological target: T1, human GPR40 (Homo sapiens, UniProt O14842)
T1 construct: host or cells: CHO cells
Experiment: Cell-based aequorin assay using human GPR40
Details: activation of human GPR40; CHO cells stably transfected with GPR40 and Aequorin; 0.01% HSA; aequorin luminescence
Description: Cell-based aequorin assays were employed to characterize the modulatory activity of compounds on the GPR40 signaling pathway. In an exemplary assay, CHO cells were stably transfected with both GPR40 and Aequorin (Euroscreen). Cells were detached from the tissue culture dish with 2 mL of trypsin (0.25% (w/v)). Trypsinization was halted with 28 mL of Hanks Buffered Salt Solution containing 20 mM Hepes (H/HBSS) and 0.01% fatty acid-free human serum albumin (HSA). Coelantrazine is added to 1 ug/mL, and the cells were incubated for 2 hours at room temperature. Compounds were dissolved in DMSO for preparation of 10 mM stock solutions. Compounds were diluted in H/HBSS containing 0.01% HSA. Serial dilutions of the test compounds were prepared to determine dose response.
Aequorin luminescence measurements were made using an EG&G Berthold 96-well luminometer, and the response was measured over a 20 second interval after cells and compounds were mixed. The maximum relative light units was plotted to determine dose response. The EC50 (effective concentration to reach 50% maximal response) was determined from the dose response plot.
Table 1 presents representative data (EC50 values) obtained for exemplary compounds of the invention for the activation of human GPR40. […]

T1 sequence (O14842 whole entry): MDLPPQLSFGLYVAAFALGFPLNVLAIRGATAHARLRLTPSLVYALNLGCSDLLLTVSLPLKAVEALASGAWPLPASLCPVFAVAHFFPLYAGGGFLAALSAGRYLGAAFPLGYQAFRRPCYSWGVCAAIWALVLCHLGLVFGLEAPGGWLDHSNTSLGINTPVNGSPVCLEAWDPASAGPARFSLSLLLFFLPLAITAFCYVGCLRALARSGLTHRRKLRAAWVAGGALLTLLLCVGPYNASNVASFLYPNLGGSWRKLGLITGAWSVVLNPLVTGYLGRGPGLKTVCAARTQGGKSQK

Row | SMILES | pEC50
1 | O=C(O)C[C@@H](c1ccc(OCCCCOc2ccc(C(F)(F)F)cc2)cc1)c1ccon1 [Example 49] | 6.00 to 7.00
2 | O=C(O)C[C@@H](c1ccc(OCc2noc(-c3cccc(C(F)(F)F)c3)n2)cc1)c1ccon1 [Example 66] | 5.00 to 6.00
3 | CC(C)c1cc(COc2ccc([C@H](CC(=O)O)c3ccon3)cc2)ccc1C(C)(C)C [Example 26, (S)-3-(4-(4-tert-Butyl-3-isopropylbenzyloxy)phenyl)-3-(isoxazol-3-yl)propanoic acid] | 6.00 to 7.00
4 | CC(C)(C)OC(=O)N1CC=C(c2cccc(COc3ccc([C@H](CC(=O)O)c4ccon4)cc3)c2)CC1 [Example 34, (S)-3-(4-(3-(1-(Tert-butoxycarbonyl)-1,2,3,6-tetrahydropyridin-4-yl)benzyloxy)phenyl)-3-(isoxazol-3-yl)propanoic acid] | 5.00 to 6.00
5 | O=C(O)C[C@@H](c1ccc(OCc2cccc(-c3ccc(C(F)(F)F)cc3)c2)cc1)c1ccon1 [Example 2, (S)-3-(4-(3-(4-(Trifluoromethyl)phenyl)benzyloxy)phenyl)-3-(isoxazol-3-yl)propanoic acid] | 7.00 to 8.00
6 | COc1ccccc1-c1nc(COc2ccc([C@H](CC(=O)O)c3ccon3)cc2)no1 [Example 64] | 5.00 to 6.00
7 | O=C(O)C[C@@H](c1ccc(OCc2noc(-c3ccccc3)n2)cc1)c1ccon1 [Example 63] | 5.00 to 6.00
8 | O=C(O)C[C@@H](c1ccc(OCCCOc2ccc(C(F)(F)F)cc2)cc1)c1ccon1 [Example 48] | 6.00 to 7.00
9 | C=C(C)c1cc(COc2ccc([C@H](CC(=O)O)c3ccon3)cc2)ccc1OC(F)(F)F [Example 24, (S)-3-(4-(3-(Prop-1-en-2-yl)-4-(trifluoromethoxy)benzyloxy)-phenyl)-3-(isoxazol-3-yl)propanoic acid] | 7.00 to 8.00
10 | CC(C)(C)C(=O)Nc1cccc(COc2ccc([C@H](CC(=O)O)c3ccon3)cc2)c1 [Example 30, (S)-3-(4-(3-Pivalamidobenzyloxy)phenyl)-3-(isoxazol-3-yl)propanoic acid] | 5.00 to 6.00
11 | O=C(O)C[C@@H](c1ccc(OCc2nc(-c3cccc(C(F)(F)F)c3)no2)cc1)c1ccon1 [Example 68] | 5.00 to 6.00
12 | CCCCOc1ccc(-c2nc(C)c(COc3ccc([C@H](CC(=O)O)c4ccon4)cc3)s2)cc1F [Example 75, (3S)-3-(4-((2-(4-Butoxy-3-fluorophenyl)-4-methylthiazol-5-yl)methoxy)phenyl)-3-(isoxazol-3-yl)propanoic acid] | 7.00 to 8.00
13 | Cc1nc(-c2ccc(C(F)(F)F)cc2)sc1COc1ccc(C(CC(=O)O)C2=NOCC2)cc1 (centres unmarked) [Example 8] | 6.00 to 7.00
14 | CCOCCOc1cc(COc2ccc([C@H](CC(=O)O)c3ccon3)cc2)c(Br)cc1C(C)(C)C [Example 46, (S)-3-(4-(2-Bromo-4-tert-butyl-5-(2-ethoxyethoxy)benzyloxy)phenyl)-3-(isoxazol-3-yl)propanoic acid] | 6.00 to 7.00
15 | CC1(C)CCC(C)(C)c2cc(COc3ccc([C@@H](CC(=O)O)c4ccon4)cc3)ccc21 [Example 41, (R)-3-(Isoxazol-3-yl)-3-(4-((5,5,8,8-tetramethyl-5,6,7,8-tetrahydronaphthalen-2-yl)methoxy)phenyl)propanoic acid] | 5.00 to 6.00
16 | CS(=O)(=O)c1cc(COc2ccc([C@H](CC(=O)O)c3ccon3)cc2)ccc1OC(F)(F)F [Example 19, (S)-3-(4-(3-(Methylsulfonyl)-4-(trifluoromethoxy)benzyloxy)-phenyl)-3-(isoxazol-3-yl)propanoic acid] | 5.00 to 6.00
17 | CC(C)(C)c1ccc(-c2noc(COc3ccc([C@H](CC(=O)O)c4ccon4)cc3)n2)cc1 [Example 70] | 6.00 to 7.00
18 | C=C(C)c1ccc(COc2ccc([C@H](CC(=O)O)c3ccon3)cc2)cc1OC(F)(F)F [Example 35, (S)-3-(4-(4-(Prop-1-en-2-yl)-3-(trifluoromethoxy)benzyloxy)-phenyl)-3-(isoxazol-3-yl)propanoic acid] | 7.00 to 8.00
19 | Cc1cc([C@@H](CC(=O)O)c2ccc(OCc3cccc(-c4ccc(C(F)(F)F)cc4)c3)cc2)no1 [Example 39, (S)-3-(4-(3-(4-(Trifluoromethyl)phenyl)benzyloxy)phenyl)-3-(5-methylisoxazol-3-yl)propanoic acid] | 5.00 to 7.00
20 | O=C(O)C[C@@H](c1ccc(OCc2ccc(C3=CCCC3)c(OC(F)(F)F)c2)cc1)c1ccon1 [Example 28, (S)-3-(4-(4-Cyclopentenyl-3-(trifluoromethoxy)benzyloxy)-phenyl)-3-(isoxazol-3-yl)propanoic acid] | 7.00 to 8.00
21 | O=C(O)C[C@@H](c1ccc(OCc2cccc(Sc3ccc(C(F)(F)F)cc3)c2)cc1)c1ccon1 [Example 31, (S)-3-(4-(3-(4-(Trifluoromethyl)phenylthio)benzyloxy)phenyl)-3-(isoxazol-3-yl)propanoic acid] | 7.00 to 8.00
22 | O=C(O)C[C@@H](c1ccc(OCCOc2ccc(C(F)(F)F)cc2)cc1)c1ccon1 [Example 47, (S)-3-(Isoxazol-3-yl)-3-(4-(2-(4-(trifluoromethyl)phenoxy)ethoxy)phenyl)propanoic acid] | 6.00 to 7.00
23 | O=C(O)C[C@@H](c1ccc(OCc2nc(-c3ccccc3)no2)cc1)c1ccon1 [Example 67] | 5.00 to 6.00

The remaining lines, values ahead:

Row | pEC50 | SMILES
24 | 7.00 to 8.00 | Cc1nc(-c2ccc(C(F)(F)F)cc2)sc1COc1ccc([C@H](CC(=O)O)c2ccon2)cc1 [Example 7, (S)-3-(Isoxazol-3-yl)-3-(4-((4-methyl-2-(4-(trifluoromethyl)phenyl)thiazol-5-yl)methoxy)phenyl)propanoic acid]
25 | 7.00 to 8.00 | Cc1nc(-c2ccc(CC(C)C)cc2)sc1COc1ccc([C@H](CC(=O)O)c2ccon2)cc1 [Example 78]
26 | 6.00 to 7.00 | CCCCc1ccc(-c2cc(COc3ccc([C@H](CC(=O)O)c4ccon4)cc3)c(C)o2)cc1 [Example 56]
27 | 5.00 to 6.00 | O=C(O)C[C@@H](c1ccc(OCc2nc(-c3c(Cl)cccc3Cl)no2)cc1)c1ccon1 [Example 71]
28 | 5.00 to 6.00 | COc1ccc(-c2nc(COc3ccc([C@H](CC(=O)O)c4ccon4)cc3)no2)cc1 [Example 11, (S)-3-(Isoxazol-3-yl)-3-(4-((5-(4-methoxyphenyl)-1,2,4-oxadiazol-3-yl)methoxy)phenyl)propanoic acid]
29 | 5.00 to 6.00 | O=C(O)C[C@@H](c1ccc(OCc2nc(-c3ccc(Cl)cc3)no2)cc1)c1ccon1 [Example 69]
30 | 7.00 to 8.00 | Cc1nc(-c2ccc(C(C)(C)C)cc2)sc1COc1ccc([C@H](CC(=O)O)c2ccon2)cc1 [Example 76]
31 | 5.00 to 6.00 | CCOc1cc(Cl)ccc1-c1ccc(COc2ccc([C@@H](CC(=O)O)c3ccon3)cc2)cc1 [Example 5, (R)-3-(4-(4-(4-Chloro-2-ethoxyphenyl)benzyloxy)phenyl)-3-(isoxazol-3-yl)propanoic acid]
32 | 7.00 to 8.00 | CCCCOc1ccc(-c2nc(C)c(COc3ccc([C@H](CC(=O)O)c4ccon4)cc3)s2)cc1Cl [Example 79]
33 | 6.00 to 7.00 | Cc1ccc(-c2nc(C)c(COc3ccc([C@H](CC(=O)O)C4=NOCC4)cc3)s2)cc1 [Example 10, (S)-3-(Dihydroisoxazol-3-yl)-3-(4-((4-methyl-2-(4-methylphenyl)thiazol-5-yl)methoxy)phenyl)propanoic acid]
34 | 7.00 to 8.00 | CCCCc1ccc(-c2nc(C)c(COc3ccc([C@H](CC(=O)O)c4ccon4)cc3)s2)cc1 [Example 77]
35 | 5.00 to 6.00 | CCN(CC)Cc1ccc(-c2nc(C)c(COc3ccc([C@H](CC(=O)O)c4ccon4)cc3)s2)cc1 [Example 54, (S)-3-(4-((2-(4-((Diethylamino)methyl)phenyl)-4-methylthiazol-5-yl)methoxy)phenyl)-3-(isoxazol-3-yl)propanoic acid]
36 | 7.00 to 8.00 | Cc1ccc(-c2ccc(COc3ccc([C@H](CC(=O)O)c4ccon4)cc3)s2)cc1 [Example 13, (S)-3-(Isoxazol-3-yl)-3-(4-((5-p-tolylthiophen-2-yl)methoxy)phenyl)propanoic acid]
37 | 5.00 to 6.00 | Cc1ccc(-c2nc(C)c(COc3ccc([C@@H](CC(=O)O)c4ccon4)cc3)s2)cc1 [Example 59, (R)-3-(Isoxazol-3-yl)-3-(4-((4-methyl-2-(4-methylphenyl)thiazol-5-yl)methoxy)phenyl)propanoic acid]
38 | 7.00 to 8.00 | Cc1ccc(-c2cc(COc3ccc([C@H](CC(=O)O)c4ccon4)cc3)c(C)o2)cc1 [Example 15, (S)-3-(Isoxazol-3-yl)-3-(4-((2-methyl-5-p-tolylfuran-3-yl)methoxy)phenyl)propanoic acid]
39 | 7.00 to 8.00 | Cc1cc(-c2ccc(C(F)(F)F)cc2)sc1COc1ccc([C@H](CC(=O)O)c2ccon2)cc1 [Example 62, (3S)-3-(3-Isoxazolyl)-3-(4-(((3-methyl-5-(4-(trifluoromethyl)phenyl)-2-thienyl)methyl)oxy)phenyl)propanoic acid]
40 | 7.00 to 8.00 | Cc1nc(-c2cccc(C(F)(F)F)c2)sc1COc1ccc([C@H](CC(=O)O)c2ccon2)cc1 [Example 72, (3S)-3-(Isoxazol-3-yl)-3-(4-((4-methyl-2-(3-(trifluoromethyl)phenyl)thiazol-5-yl)methoxy)phenyl)propanoic acid]
41 | 7.00 to 8.00 | CCCCc1ccc(-c2nc(C)c(COc3ccc([C@H](CC(=O)O)C4=NOCC4)cc3)s2)cc1 [Example 14, (S)-3-(4-((2-(4-Butylphenyl)-4-methylthiazol-5-yl)methoxy)phenyl)-3-(4,5-dihydroisoxazol-3-yl)propanoic acid]
